Experimental data as given in ChEMBL document CHEMBL1134447 (J Med Chem, 2001).

What was measured:
physchem [1] = conditions: octanol/water, pH 7.4
physchem [2] = conditions: buffer

In the case of `O=C(OCc1cc2c(cc1Cl)OCO2)N1CCC(n2c(O)nc3ccccc32)CC1`, the logD (physchem [1]) is reported as 4.2 and the solubility (physchem [2]) is reported as < 10 µM.

For `O=C(OC1CCc2ccccc21)N1CCC2(CC1)C(=O)NCN2c1ccccc1` (stereo not drawn), the logD (physchem [1]) was > 4 and the solubility (physchem [2]) was < 10 µM.

With `O=C(OCc1cccc(Oc2ccccc2)c1)N1CCC2(CC1)C(=O)NCN2c1ccccc1` the logD (physchem [1]) was > 4 and the solubility (physchem [2]) was < 10 µM.

For `O=C(NCCCn1c(=O)[nH]c2ccccc21)OCc1cc2c(cc1Cl)OCO2`, the logD (physchem [1]) was > 4 and the solubility (physchem [2]) was < 10 µM.
